Laboratory results as given in US20230099344A1, “COMPOUNDS AND METHODS FOR THE TARGETED DEGRADATION OF IRAK-4” (Arvinas Operations, Inc., priority 2021, published 2023).

These compounds were tested against T1, IRAK-4 (Homo sapiens, UniProt Q9NWZ3) (assay: IRAK-4 ELISA, PBMC degradation). Details: treated overnight.
T1 sequence (Q9NWZ3 1-460): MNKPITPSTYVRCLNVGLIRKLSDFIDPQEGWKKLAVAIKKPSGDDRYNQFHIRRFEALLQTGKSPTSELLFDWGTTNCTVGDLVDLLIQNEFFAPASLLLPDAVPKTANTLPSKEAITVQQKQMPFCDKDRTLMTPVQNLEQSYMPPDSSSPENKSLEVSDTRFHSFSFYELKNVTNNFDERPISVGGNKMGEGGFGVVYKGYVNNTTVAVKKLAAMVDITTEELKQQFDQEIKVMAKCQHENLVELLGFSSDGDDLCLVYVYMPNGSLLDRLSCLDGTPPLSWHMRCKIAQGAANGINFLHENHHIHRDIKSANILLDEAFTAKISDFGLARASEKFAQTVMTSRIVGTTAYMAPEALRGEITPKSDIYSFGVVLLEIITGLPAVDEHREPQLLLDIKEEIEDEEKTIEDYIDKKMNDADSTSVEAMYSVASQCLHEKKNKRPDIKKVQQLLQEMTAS
Type: cell-based
Parameters: endogenous in cells; host or cells: PBMC
Method in brief: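 OCI-Ly10 cells (seeded at 1×10^6/ml) or human PBMC (seeded at 2×10^6/ml) were treated with compound on the day of seeding and incubated overnight. Lysates were then assayed for remaining IRAK-4 protein by sandwich ELISA with a matched antibody pair.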
O=C1CCC(N2C(=O)c3ccc(N4CC(CN5CCC(n6cc7cc(NC(=O)c8cnn9cccnc89)c(C8CC8)cc7n6)CC5)C4)cc3C2=O)C(=O)N1 (stereo not drawn) [Example 185] was tested, and the DC50 was less than 1 nM, the Dmax was no less than 90% and the “PBMC DC90” value was “A (A represents a DC90 value <10.0 nM)”.
O=C1CCC(N2C(=O)c3ccc(N4CCC(CN5CCC(n6cc7cc(NC(=O)c8cnn9cccnc89)c(C8CC8)cc7n6)CC5)CC4)cc3C2=O)C(=O)N1 (stereo not drawn) [Example 186] was tested, and the DC50 was 1 to 5 nM, the Dmax was no less than 90% and the “PBMC DC90” value was “A (A represents a DC90 value <10.0 nM)”.
With CC(C)Oc1cc2nn(C3CCN(CC4CN(c5ccc6c(c5)C(=O)N(C5CCC(=O)NC5=O)C6=O)C4)CC3)cc2cc1NC(=O)c1cnn2cccnc12 (stereo not drawn) [Example 187] the DC50 was less than 1 nM, the Dmax was no less than 90% and the “PBMC DC90” value was “A (A represents a DC90 value <10.0 nM)”.
With CC(C)Oc1cc2nn(C3CCN(CC4(F)CCN(c5ccc6c(c5)C(=O)N(C5CCC(=O)NC5=O)C6=O)CC4)CC3)cc2cc1NC(=O)c1cnn2cccnc12 (stereo not drawn) [Example 188] the DC50 was 5 to 10 nM, the Dmax was no less than 90% and the “PBMC DC90” value was “D (D represents a DC90 value ≥50 nM)”.
For CC(C)Oc1cc2nn(C3CCN(CC4(F)CN(c5cc6c(cc5F)C(=O)N(C5CCC(=O)NC5=O)C6=O)C4)CC3)cc2cc1NC(=O)c1cnn2cccnc12 (stereo not drawn) [Example 189], the DC50 was less than 1 nM, the Dmax was no less than 90% and the “PBMC DC90” value was “A (A represents a DC90 value <10.0 nM)”.
In the case of CC(C)Oc1cc2nn(C3CCN(CC4(F)CN(c5ccc6c(c5)C(=O)N(C5CCC(=O)NC5=O)C6=O)C4)CC3)cc2cc1NC(=O)c1cnn2ccc(N3CCOCC3)nc12 (stereo not drawn) [Example 190], the DC50 is reported as no less than 10 nM, the Dmax is reported as no less than 90% and the “PBMC DC90” value is reported as “D (D represents a DC90 value ≥50 nM)”.
With CC(C)Oc1cc2nn(C3CCN(CC4(F)CN(c5ccc6c(c5)C(=O)N(C5CCC(=O)NC5=O)C6=O)C4)CC3)cc2cc1NC(=O)c1cnn2ccc(N3C[C@H]4C[C@@H]3CO4)nc12 (stereo partly drawn) [Example 191] the DC50 was 5 to 10 nM, the Dmax was 80 to 90% and the “PBMC DC90” value was “D (D represents a DC90 value ≥50 nM)”.
CC(C)Oc1cc2nn(C3CCN(CC4(C)CN(c5ccc6c(c5)C(=O)N(C5CCC(=O)NC5=O)C6=O)C4)CC3)cc2cc1NC(=O)c1cnn2cccnc12 (stereo not drawn) [Example 192] was tested, and the DC50 was 1 to 5 nM, the Dmax was 80 to 90% and the “PBMC DC90” value was “A (A represents a DC90 value <10.0 nM)”.
With CC(C)Oc1cc2nn(C3CN(CC4(F)CCN(c5ccc6c(c5)C(=O)N(C5CCC(=O)NC5=O)C6=O)CC4)C3)cc2cc1NC(=O)c1cnn2cccnc12 (stereo not drawn) [Example 194] the DC50 was 1 to 5 nM, the Dmax was no less than 90% and the “PBMC DC90” value was “C (C represents a DC90 value ≥25.0 nM and <50 nM)”.
In the case of CCOc1cc2nn(C3CCN(CC4(F)CN(c5ccc6c(c5)C(=O)N(C5CCC(=O)NC5=O)C6=O)C4)CC3)cc2cc1NC(=O)c1cnn2cccnc12 (stereo not drawn) [Example 195], the DC50 is reported as 1 to 5 nM, the Dmax is reported as no less than 90% and the “PBMC DC90” value is reported as “B (B represents a DC90 value ≥10.0 nM and <25.0 nM)”.
O=C1CCC(N2C(=O)c3ccc(N4CC(F)(CN5CCC(n6cc7cc(NC(=O)c8cnn9cccnc89)c(OC8CCC8)cc7n6)CC5)C4)cc3C2=O)C(=O)N1 (stereo not drawn) [Example 196] was tested, and the DC50 was 1 to 5 nM, the Dmax was 80 to 90% and the “PBMC DC90” value was “B (B represents a DC90 value ≥10.0 nM and <25.0 nM)”.
For O=C1CCC(N2C(=O)c3ccc(N4CC(CN5CCC(n6cc7cc(NC(=O)c8cnn9cccnc89)c(OC8CCC8)cc7n6)CC5)C4)cc3C2=O)C(=O)N1 (stereo not drawn) [Example 197], the DC50 was less than 1 nM, the Dmax was 80 to 90% and the “PBMC DC90” value was “A (A represents a DC90 value <10.0 nM)”.
In the case of O=C1CCC(N2C(=O)c3ccc(N4CC(F)(CN5CCC(n6cc7cc(NC(=O)c8cnn9cccnc89)c(OC8CCCC8)cc7n6)CC5)C4)cc3C2=O)C(=O)N1 (stereo not drawn) [Example 198], the DC50 is reported as 5 to 10 nM, the Dmax is reported as no less than 90% and the “PBMC DC90” value is reported as “B (B represents a DC90 value ≥10.0 nM and <25.0 nM)”.
O=C1CCC(N2C(=O)c3ccc(N4CC(F)(CN5CCC(n6cc7cc(NC(=O)c8cnn9cccnc89)c(C8CC8)cc7n6)CC5)C4)cc3C2=O)C(=O)N1 (stereo not drawn) [Example 199] was tested, and the DC50 was 1 to 5 nM, the Dmax was no less than 90% and the “PBMC DC90” value was “B (B represents a DC90 value ≥10.0 nM and <25.0 nM)”.
With O=C1CCC(N2C(=O)c3ccc(N4CC(F)(CN5CCC(n6cc7cc(NC(=O)c8cnn9cccnc89)c(OC8CC8)cc7n6)CC5)C4)cc3C2=O)C(=O)N1 (stereo not drawn) [Example 200] the DC50 was 1 to 5 nM, the Dmax was no less than 90% and the “PBMC DC90” value was “A (A represents a DC90 value <10.0 nM)”.
For O=C1CCC(N2Cc3cc(N4CC(F)(CN5CCC(n6cc7cc(NC(=O)c8cnn9cccnc89)c(OC8CCC8)cc7n6)CC5)C4)ccc3C2=O)C(=O)N1 (stereo not drawn) [Example 214], the DC50 was less than 1 nM, the Dmax was 70 to 80% and the “PBMC DC90” value was “A (A represents a DC90 value <10.0 nM)”.
In the case of O=C1CCC(N2C(=O)c3ccc(N4CC(F)(CN5CCC(N6Cc7cc(NC(=O)c8cnn9cccnc89)c(OC8CCC8)cc7C6=O)CC5)C4)cc3C2=O)C(=O)N1 (stereo not drawn) [Example 215], the DC50 is reported as 1 to 5 nM, the Dmax is reported as 70 to 80% and the “PBMC DC90” value is reported as “A (A represents a DC90 value <10.0 nM)”.
With O=C1CCC(N2Cc3cc(N4CC(F)(CN5CCC(n6cc7cc(NC(=O)c8cnn9cccnc89)c(OC8CCC8)cc7n6)CC5)C4)ccc3C2=O)C(=O)N1 (stereo not drawn) [Example 216] the DC50 was less than 1 nM, the “PBMC DC90” value was “A (A represents a DC90 value <10.0 nM)” and the “PBMC Dmax” value was “B (B represents a Dmax value ≥80 and <90)”.
COc1cc(N2CC(F)(CN3CCC(n4cc5cc(NC(=O)c6cnn7cccnc67)c(OC(C)C)cc5n4)CC3)C2)cc2c1C(=O)N(C1CCC(=O)NC1=O)C2=O (stereo not drawn) [Example 217] was tested, and the DC50 was less than 1 nM, the Dmax was 80 to 90% and the “PBMC DC90” value was “A (A represents a DC90 value <10.0 nM)”.
For CC(C)Oc1nc2nn(C3CCN(CC4(F)CN(c5ccc6c(c5)C(=O)N(C5CCC(=O)NC5=O)C6=O)C4)CC3)cc2cc1NC(=O)c1cnn2cccnc12 (stereo not drawn) [Example 219], the DC50 was 5 to 10 nM, the Dmax was 80 to 90% and the “PBMC DC90” value was “C (C represents a DC90 value ≥25.0 nM and <50 nM)”.
With CC(C)(C)Oc1nc2nn(C3CCN(CC4(F)CN(c5ccc6c(c5)C(=O)N(C5CCC(=O)NC5=O)C6=O)C4)CC3)cc2cc1NC(=O)c1cnn2cccnc12 (stereo not drawn) [Example 220] the DC50 was 1 to 5 nM, the Dmax was 80 to 90% and the “PBMC DC90” value was “C (C represents a DC90 value ≥25.0 nM and <50 nM)”.
O=C1CCC(N2C(=O)c3cc(F)c(N4CC(CN5CCC(n6cc7cc(NC(=O)c8cnn9cccnc89)c(OCC8CC8)cc7n6)CC5)C4)cc3C2=O)C(=O)N1 (stereo not drawn) [Example 221] was tested, and the DC50 was 1 to 5 nM, the Dmax was less than 70% and the “PBMC DC90” value was “B (B represents a DC90 value ≥10.0 nM and <25.0 nM)”.
C[C@@H](Oc1cc2nn(C3CCN(CC4(F)CN(c5ccc6c(c5)C(=O)N(C5CCC(=O)NC5=O)C6=O)C4)CC3)cc2cc1NC(=O)c1cnn2cccnc12)C1CC1 (stereo partly drawn) [Example 223] was tested, and the DC50 was 1 to 5 nM, the Dmax was 70 to 80% and the “PBMC DC90” value was “C (C represents a DC90 value ≥25.0 nM and <50 nM)”.
O=C1CCC(N2C(=O)c3ccc(N4CC[C@H](N5CCC(n6cc7cc(NC(=O)c8cnn9cccnc89)c(OCC8CC8)cc7n6)CC5)C4)cc3C2=O)C(=O)N1 (stereo partly drawn) [Example 225] was tested, and the DC50 was 1 to 5 nM, the Dmax was 80 to 90% and the “PBMC DC90” value was “B (B represents a DC90 value ≥10.0 nM and <25.0 nM)”.
O=C1CCC(N2C(=O)c3ccc(N4CC5(CCC(N6CCC(n7cc8cc(NC(=O)c9cnn%10cccnc9%10)c(OCC9CC9)cc8n7)CC6)CC5)C4)cc3C2=O)C(=O)N1 (stereo not drawn) [Example 227] was tested, and the DC50 was 1 to 5 nM, the Dmax was 80 to 90% and the “PBMC DC90” value was “A (A represents a DC90 value <10.0 nM)”.
For CC1(N2CCC(n3cc4cc(NC(=O)c5cnn6cccnc56)c(OCC5CC5)cc4n3)CC2)CN(c2ccc3c(c2)C(=O)N(C2CCC(=O)NC2=O)C3=O)C1 (stereo not drawn) [Example 228], the DC50 was 1 to 5 nM, the Dmax was 80 to 90% and the “PBMC DC90” value was “C (C represents a DC90 value ≥25.0 nM and <50 nM)”.
With O=C1CCC(N2C(=O)c3cc(F)c(N4CC(F)(CN5CCC(n6cc7cc(NC(=O)c8cnn9cccnc89)c(OCC8CC8)cc7n6)CC5)C4)cc3C2=O)C(=O)N1 (stereo not drawn) [Example 229] the DC50 was 5 to 10 nM, the Dmax was 80 to 90% and the “PBMC DC90” value was “B (B represents a DC90 value ≥10.0 nM and <25.0 nM)”.
For CC(C)(C1CCN(c2ccc3c(c2)C(=O)N(C2CCC(=O)NC2=O)C3=O)CC1)N1CCC(n2cc3cc(NC(=O)c4cnn5cccnc45)c(OCC4CC4)cc3n2)CC1 (stereo not drawn) [Example 230], the DC50 was 1 to 5 nM, the Dmax was no less than 90% and the “PBMC DC90” value was “D (D represents a DC90 value ≥50 nM)”.
O=C1CCC(N2C(=O)c3ccc(N4CC(F)(CN5CCC(n6cc7cc(NC(=O)c8cnn9cccnc89)c(OCC(F)F)cc7n6)CC5)C4)cc3C2=O)C(=O)N1 (stereo not drawn) [Example 232] was tested, and the DC50 was 1 to 5 nM, the “PBMC DC90” value was “C (C represents a DC90 value ≥25.0 nM and <50 nM)” and the “PBMC Dmax” value was “B (B represents a Dmax value ≥80 and <90)”.
In the case of O=C1CCC(N2C(=O)c3ccc(N4CC(F)(CN5CCC(n6cc7cc(NC(=O)c8cnn9ccc(N%10CCOCC%10)nc89)c(OCC8CC8)cc7n6)CC5)C4)cc3C2=O)C(=O)N1 (stereo not drawn) [Example 233], the DC50 is reported as 5 to 10 nM, the Dmax is reported as 80 to 90% and the “PBMC DC90” value is reported as “C (C represents a DC90 value ≥25.0 nM and <50 nM)”.
For COC1(CN2CCC(n3cc4cc(NC(=O)c5cnn6cccnc56)c(OCC5CC5)cc4n3)CC2)CN(c2ccc3c(c2)C(=O)N(C2CCC(=O)NC2=O)C3=O)C1 (stereo not drawn) [Example 234], the DC50 was less than 1 nM, the Dmax was 80 to 90% and the “PBMC DC90” value was “A (A represents a DC90 value <10.0 nM)”.
With O=C1CCC(N2C(=O)c3ccc(N4CC(CN5CCC(n6cc7cc(NC(=O)c8cnn9cccnc89)c(OCC(F)F)cc7n6)CC5)C4)cc3C2=O)C(=O)N1 (stereo not drawn) [Example 235] the DC50 was less than 1 nM, the Dmax was no less than 90% and the “PBMC DC90” value was “A (A represents a DC90 value <10.0 nM)”.
